Measurements reported in patent publication US7041625B2, “Method to inhibit ethylene responses in plants” (Rohm and Haas Company, priority 2003, dated 2006).

Tests used:
[1] = test system: ethylene-induced epinasty in tomato plants; test: Tomato epinasty test, spray application treatment; type: in vivo, Patio variety tomato seedlings; conditions: spray at 10 ppm in 10% acetone/90% water with 0.05% Silwett L-77; air-dried four hours; ethylene 10 ppm v/v; scored visually sixteen hours later; 10 = complete protection, 0 = no protection
Protocol: (§1) Objective: The test procedure is designed to determine the ability of an experimental compound to block the epinastic growth response induced by ethylene in tomato plants when the experimental compound is administered either as a volatile gas or as a component of a spray solution.
(§2) Treatment chambers are of an appropriate size for the test plants and are airtight. Each is fitted with a reusable septum to be used for injection of ethylene. Test plants are Patio variety tomato seedlings planted two plants per three inch square plastic pot.
Spray application treatment entails using a DeVilbiss atomizer to completely cover all foliage and stems of two pots of Patio var. tomato plants with the appropriate amount of experimental compound dissolved in 10% acetone/90% water with 0.05% Silwett L-77 surfactant. Plants are air-dried in a drying hood for four hours then transferred to a 4.8 L polystyrene chamber which is sealed.
Ethylene gas equal to 10 ppm v/v final concentration is injected into the sealed chamber. Sixteen hours later the chambers are opened in an exhaust hood, allowed to air and the plants scored visually for the degree of protection against ethylene-induced epinasty conferred by the experimental compound when compared to ethylene treated and untreated controls on a scale of 0 to 10. A rating of 10 means complete protection. […]

[2] = test system: ethylene-induced epinasty in tomato plants; test: Tomato epinasty test, volatile gas treatment; type: in vivo, Patio variety tomato seedlings; conditions: ethylene 10 ppm v/v injected four hours later, scored visually sixteen hours later, 10 = complete protection, 0 = no protection; for Gas @ 10 ppm: degree of protection against ethylene-induced epinasty, rating on a scale of 0 to 10: compound as volatile gas at 10 ppm v/v
Protocol: as §1, §2
Volatile gas treatment entails placing two pots of Patio var. tomatoes into a polystyrene 4.8 L volume treatment chamber along with one-half (upper or lower section) of a 50×9 mm plastic Petri dish containing a Gelman filter pad. The appropriate amount of experimental compound, dissolved in 1.0 ml acetone, is pipetted onto the filter pad and the chamber immediately sealed. Four hours later ethylene gas equal to 10 ppm v/v final concentration is injected into the sealed chamber. Sixteen hours later the chambers are opened in an exhaust hood, allowed to air and the plants scored visually for the degree of protection against ethylene-induced epinasty conferred by the experimental compound when compared to ethylene treated and untreated controls on a scale of 0 to 10. A rating of 10 means complete protection. A rating of 0 means no protection from the effects of ethylene. Gas treatment concentrations are volume/volume.

Row | SMILES | Spray @ 10 ppm: degree of protection against ethylene-induced epinasty, rating on a scale of 0 to 10 [1] | Gas @ 10 ppm: degree of protection against ethylene-induced epinasty, rating on a scale of 0 to 10 [2] | Gas @ 1000 ppm: degree of protection against ethylene-induced epinasty, rating on a scale of 0 to 10 ([2]; compound as volatile gas at 1000 ppm v/v)
1 | C1=C2CCCCCC12 (centres unmarked) [Compound 1, Bicyclo[5.1.0]oct-1(8)-ene] | 0 | 8 | 
2 | CCCCCCCCC1=CC12OCC(C)(C)CO2 [Compound 2, 6.6-Dimethyl-1-octyl-4.8-dioxa-spiro[2.5]oct-1-ene] | 0 | 0 | 4
